These results are taken from patent US5147604A, “Dioxo-aromatic compounds as oxygen scavengers” (Betz Laboratories, Inc., priority 1988, dated 1992).

Series [1] in a line: Oxygen scavenging efficacy at elevated temperature and pressure in hot water flow system (Example 1, TABLE 1). The conditions noted are these: for % O2 Removed: 78°±3°C, 4±1 psig, contact 4±0.2 min, feedwater concentration, pH and initial O2 (ppm) vary by line of TABLE 1, values below 20% may be experimental artifacts; for oxygen scavenging (in words): test water, TABLE 1. How it is done:
In a first series of tests, the oxygen scavenging efficacies of various materials were evaluated under conditions of elevated temperature and pressure. The test apparatus used was essentially a stainless steel hot water flow system equipped with appropriate monitoring instrumentation. Demineralized feedwater, adjusted to the appropriate pH and initial dissolved oxygen level (controlled by nitrogen sparging), was pumped from a reservoir at ambient temperature into a once-through heater. Temperature was monitored continuously by means of thermocouples at several locations along the length of the flow tubing. A solution containing the oxygen scavenger test material was loaded into a pump driven syringe and fed continuously to the heated flow stream through a port containing a stainless steel ribbon mixing baffle. The feedwater containing dissolved oxygen and the test material then traversed the flow tubing via a by-pass comprising an additional length of coiled tubing. Contact (or reaction) time of the test material and dissolved oxygen was governed by the choice of coil length. The tendency of the temperature to drop during residence in the coiled tubing was offset by the use of thermostatted heating tapes which maintained the temperature in this tubing at 78°±3°C. Upon exiting the coiled tubing, the stream flowed through a sample cooler to render the temperature of the liquid compatible with the operating range of a membrane-type dissolved oxygen probe. The cooled liquid was analyzed for dissolved oxygen via a D.O. flow cell, and pH was potentiometrically monitored in the flow tube immediately downstream of the D.O. probe. Outputs of the temperature, pH and dissolved oxygen probes during operation were monitored via strip chart recorders. The final destination of the reaction mixture was a reservoir which could be drained for analysis of reaction products, if desired.
Temperature in the system could be maintained at 78°±3° C. under 4±1 psig. Residence time of the feedwater in the flow tube from chemical feed point to D.O. flow cell outlet was 4±0.2 minutes. […] Entry into and residence in the sample cooler accounted for 0.5 minute of the total contact time. […]
The test solutions were prepared by initially mixing 10 grams of test material and 90 grams of demineralized water in glass bottles and allowing the mixture to remain in a shaker for several hours. If complete dissolution for a given material was observed after shaking, the pH of the solution was measured. When the pH of the solution was below 10.0, 7N sodium hydroxide was added dropwise until this value was reached. The quantity of added sodium hydroxide was recorded and later used in corrections for the active concentration of the solution. When the pH value of a stock solution was above pH 10.0 without requiring the addition of caustic, the solution was not further modified.
Results of these tests are reported in TABLE 1 below in terms of percent oxygen removed from the test stream. The precision of the initial and final dissolved oxygen values reported is approximately ±10%. […] The experimental uncertainties decrease with increasing values of percent dissolved oxygen removal.

The nature of series [2]: Thermal decomposition studies of aqueous solutions in autoclaves (Example 5, TABLE 6). The conditions noted are these: hydrazine 60 ppm, 4 hours.
The test system of series [3] is test rats. The conditions noted are these: NIOSH Registry of Toxic Effects of Chemical Substances (1976); cited from earlier work.
For series [4] the following is noted: to nitrogen, hydrogen and ammonia; cited from earlier work.
Series [5] in a line: Oxygen scavenging in feedwater of a working boiler, field-type conditions (Example 2, TABLES 2 and 3). The conditions noted are these: TABLE 2, actives 1.0-2.2 ppm, pH 8.7-9.4, steam load 11 or 15 (1000 lbs./hr.), initial O2 3.8-8 ppb by line.
A short description of series [6]: Low (room) temperature reactivity with oxygen (Example 4, TABLE 5). The conditions noted are these: mole ratio of treatment to O2 and initial O2 by line of TABLE 5; for % O2 Removed, 1 Minute: room temperature 22.5-26.5 °C, pH 8.6-10.0; for % O2 Removed, 5 Minutes: room temperature 24.0-26.5 °C, pH 9.1-10.0. From the text: In a further series of tests, the low (room) temperature reactivities with oxygen of various dioxo compounds were compared to that of hydrazine. The test apparatus basically consisted of a 1 liter three-necked flask fitted with a dissolved oxygen probe and a pH electrode. The intent of this apparatus was to show reaction kinetics differences rather than precise measurements (within seconds) of reaction times.
The flask was filled with deionized water which had been stripped of some dissolved oxygen by bubbling nitrogen through a diffuser stone. The pH was adjusted to the desired level with sodium hydroxide. The flask was sealed with a rubber septum, the dissolved oxygen probe and an inlet stopper. A magnetic stirrer bar was left in the flask for mixing. The mixer was turned on, and dissolved oxygen and temperature readings were recorded until the dissolved oxygen reached a constant value. Next, the appropriate quantity of additive was injected through the septum using a hypodermic syringe. The initial mole ratio of treatment to dissolved oxygen was determined by weighing feed chemical and measuring the oxygen concentration. […] Dissolved oxygen and temperature readings were then taken at appropriate time intervals.
The results of these tests are provided below in TABLE 5 in terms of relative amounts of % oxygen removed at the time intervals indicated (1 and 5 minutes).

Turning to `O=Cc1ccc(O)cc1O` [2,4-dihydroxybenzaldehyde], in series [1], the “% O2 Removed” value worked out at 14% and the “oxygen scavenging (in words)” value is “ineffective”.
In the case of `Cc1ccccc1O` [o-cresol], the “% O2 Removed” value in series [1] was determined as 17%.
As for `Oc1cccc(O)c1` [resorcinol], in series [1], the “oxygen scavenging (in words)” value is given as “ineffective”.
Turning to `NN` [hydrazine], the “% Decomposition” value in series [2] (0 psig, 70 °F.) worked out at 0%; in series [2] (1100 psig, 550 °F.), 52%; in series [2] (1620 psig, 600 °F.), 79%; in series [2] (2000 psig, 636 °F.), 93%. For the same compound, the “LD50 Oral Rat” value in series [3] was 60 mg/kg. Further, the “temperature above which it decomposes” value in series [4] is “Above 400 ° F”.
Take `Oc1ccc(-c2ccccc2)cc1` [p-phenylphenol]: the “% O2 Removed” value in series [1] turned out to be 40%.
On the same count and under the same terms, in the case of `COc1ccc(O)cc1` [p-methoxyphenol] it was 40%.
Regarding `Nc1ccccc1N` [o-phenylenediamine], the “oxygen scavenging (in words)” value in series [1] was “ineffective”.
Regarding `O=C1C=CC(=O)c2ccccc21` [1,4-naphthoquinone], the results for the “% O2 Removed” value in series [5] and in series [1] were 88% and 99%, respectively.
Take `Nc1ccc(N)cc1` [p-phenylenediamine]: the “oxygen scavenging (in words)” value in series [1] is “ineffective”.
Consider `Oc1ccccc1O` [catechol], for which the “% O2 Removed” value is given as 75% in series [5] and 96% in series [1]. The “LD50 Oral Rat” value in series [3] is 3890 mg/kg. In series [6], the “% O2 Removed, 1 Minute” value was determined as 7%. In series [6], the “% O2 Removed, 5 Minutes” value is 30%.
Turning to `CC(C)(C)c1ccc(O)c(O)c1` [4-tert-butylcatechol], the “% O2 Removed” value in series [5] was determined as 37%; in series [1], 97%. Besides, the “LD50 Oral Rat” value in series [3] was 2820 mg/kg.
As to `Oc1ccc(O)cc1` [hydroquinone], the “LD50 Oral Rat” value in series [3] is 320 mg/kg.
Consider `O=C(O)c1ccc(O)cc1` [p-hydroxybenzoic acid], for which the “% O2 Removed” value in series [1] turned out to be 13%.
On to `O=Cc1ccc(O)c(O)c1` [3,4-dihydroxybenzaldehyde], for which the “% O2 Removed” value in series [1] was found to be 73 ± 2%.
Regarding `O=C1C=CC(=O)C=C1` [benzoquinone], the “% O2 Removed” value in series [5] stood at 57%. For the same compound, in series [1], the “% O2 Removed” value came to 96% and the “oxygen scavenging (in words)” value is on record as “quite efficacious as an oxygen scavenger”. In series [6], the “% O2 Removed, 1 Minute” value is listed as 76% and the “% O2 Removed, 5 Minutes” value was 90%.
In the case of `O=[N+]([O-])c1ccccc1O` [2-nitrophenol], the “% O2 Removed” value in series [1] stood at 0%.
As for `O=Cc1cc(O)ccc1O` [2,5-dihydroxybenzaldehyde], the “% O2 Removed” value in series [1] amounted to 98%.
